ChEMBL document CHEMBL5120841, “Discovery of novel pleuromutilin derivatives as potent antibacterial agents” (2022)
Converted amounts (≈) assume the structure as drawn. The source made the active and inactive calls. No cut-off for these calls is given here.

Assays:
Staphylococcus aureus [1] = test: Antibacterial activity against methicillin-resistant Staphylococcus aureus BNCC 337371 assessed as bacterial growth inhibition incubated for 18 to 24 hrs by microtiter dilution method; assay type: functional; settings: time 18-24 hrs
[2] = test system: Staphylococcus epidermidis; test: Antibacterial activity against methicillin-resistant Staphylococcus epidermidis ATCC 51625 assessed as bacterial growth inhibition incubated for 18 to 24 hrs by microtiter dilution method; assay type: functional; settings: time 18-24 hrs
Staphylococcus aureus [3] = test: Antibacterial activity against Staphylococcus aureus ATCC 25923 assessed as bacterial growth inhibition incubated for 18 to 24 hrs by microtiter dilution method; assay type: functional; settings: time 18-24 hrs
Bacillus subtilis = test: Antibacterial activity against Bacillus subtilis assessed as bacterial growth inhibition incubated for 18 to 24 hrs by microtiter dilution method; assay type: functional; settings: time 18-24 hrs
Enterococcus faecalis = test: Antibacterial activity against Enterococcus faecalis assessed as bacterial growth inhibition incubated for 18 to 24 hrs by microtiter dilution method; assay type: functional; settings: time 18-24 hrs
Escherichia coli = test: Antibacterial activity against Escherichia coli CICC 10389 assessed as bacterial growth inhibition incubated for 18 to 24 hrs by microtiter dilution method; assay type: functional; settings: time 18-24 hrs
Staphylococcus aureus [4] = test: Antibacterial activity against methicillin-resistant Staphylococcus aureus BNCC 337371 assessed as reduction on bacterial count at 6X MIC incubated for 24 hrs by time killing assay; assay type: functional
Staphylococcus aureus [5] = test: Antibacterial activity against Staphylococcus aureus ATCC 25923 assessed as reduction on bacterial count at 6X MIC incubated for 24 hrs by time killing assay; assay type: functional
Staphylococcus aureus [6] = test: Antibacterial activity against methicillin-resistant Staphylococcus aureus BNCC 337371 infected in Kunming mouse assessed as reduction on bacterial growth by measuring survival rate at ip dosed measured after 7 days by Bliss method; assay type: functional; settings: BNCC 337371, 168 h, time 7 day
Staphylococcus aureus [7] = test: Antibacterial activity against methicillin-resistant Staphylococcus aureus BNCC 337371 infected in Kunming mouse lung assessed as reduction on bacterial growth at 40 mg/kg,ip dosed measured after 7 days by 10-fold dilution method; assay type: functional; settings: time 7 day
Staphylococcus aureus [8] = test: Antibacterial activity against methicillin-resistant Staphylococcus aureus BNCC 337371 infected in Kunming mouse lung assessed as reduction on bacterial growth at 15 mg/kg,ip dosed measured after 7 days by 10-fold dilution method; assay type: functional; settings: time 7 day
Staphylococcus aureus [9] = test: Antibacterial activity against methicillin-resistant Staphylococcus aureus BNCC 337371 infected in Kunming mouse liver assessed as reduction on bacterial growth at 40 mg/kg,ip dosed measured after 7 days by 10-fold dilution method; assay type: functional, organism-based; settings: time 7.0 day
Staphylococcus aureus [10] = test: Antibacterial activity against methicillin-resistant Staphylococcus aureus BNCC 337371 infected in Kunming mouse kidney assessed as reduction on bacterial growth at 40 mg/kg,ip dosed measured after 7 days by 10-fold dilution method; assay type: functional; settings: time 7 day
Staphylococcus aureus [11] = test: Antibacterial activity against methicillin-resistant Staphylococcus aureus BNCC 337371 infected in Kunming mouse lung assessed as reduction on alveolar diaphragm thickening at 40 mg/kg,ip measured after 7 days by hematoxylin and eosin staining based light microscopic analysis; assay type: functional, organism-based; settings: time 7.0 day
Staphylococcus aureus [12] = test: Antibacterial activity against methicillin-resistant Staphylococcus aureus BNCC 337371 infected in Kunming mouse lung assessed as reduction on alveolar diaphragm thickening at 15 mg/kg,ip measured after 7 days by hematoxylin and eosin staining based light microscopic analysis; assay type: functional, organism-based; settings: time 7.0 day
Staphylococcus aureus [13] = test: Antibacterial activity against methicillin-resistant Staphylococcus aureus BNCC 337371 infected in Kunming mouse lung assessed as reduction on neutrophil infiltration at 40 mg/kg,ip measured after 7 days by hematoxylin and eosin staining based light microscopic analysis; assay type: functional, organism-based; settings: time 7.0 day
Staphylococcus aureus [14] = test: Antibacterial activity against methicillin-resistant Staphylococcus aureus BNCC 337371 infected in Kunming mouse lung assessed as reduction on neutrophil infiltration at 15 mg/kg,ip measured after 7 days by hematoxylin and eosin staining based light microscopic analysis; assay type: functional, organism-based; settings: time 7.0 day
Staphylococcus aureus [15] = test: Antibacterial activity against methicillin-resistant Staphylococcus aureus BNCC 337371 infected in Kunming mouse lung assessed as reduction on lymphocyte infiltration at 40 mg/kg,ip measured after 7 days by hematoxylin and eosin staining based light microscopic analysis; assay type: functional, organism-based; settings: time 7.0 day
Staphylococcus aureus [16] = test: Antibacterial activity against methicillin-resistant Staphylococcus aureus BNCC 337371 infected in Kunming mouse lung assessed as reduction on lymphocyte infiltration at 15 mg/kg,ip measured after 7 days by hematoxylin and eosin staining based light microscopic analysis; assay type: functional, organism-based; settings: time 7.0 day

## C=C[C@]1(C)C[C@@H](OC(=O)CSc2nc(C)c(C(=O)OCC)c(C)n2)[C@]2(C)[C@H](C)CC[C@]3(CCC(=O)[C@H]32)[C@@H](C)[C@@H]1O
Staphylococcus aureus [1]
  MIC: ≤ 0.0156 µg/mL
[2]
  MIC: ≤ 0.0156 µg/mL
Staphylococcus aureus [3]
  MIC: ≤ 0.0156 µg/mL
Bacillus subtilis
  MIC: 4 µg/mL (≈ 6.98 µM)
Enterococcus faecalis
  MIC: > 16 µg/mL
Escherichia coli
  MIC: > 16 µg/mL
Staphylococcus aureus [4]
  Activity: 2.44 log10CFU/ml
Staphylococcus aureus [5]
  Activity: 3.62 log10CFU/ml
Staphylococcus aureus [6]
  ED50: 16.1 mg/kg
Staphylococcus aureus [7]
  Activity: 4.95 log10CFU/ml
Staphylococcus aureus [8]
  Activity: 2.97 log10CFU/ml
Staphylococcus aureus [9]
  Activity: Active
Staphylococcus aureus [10]
  Activity: 3.24 log10CFU/ml
Staphylococcus aureus [11]
  Activity: Active
Staphylococcus aureus [12]
  Activity: Active
Staphylococcus aureus [13]
  Activity: Active
Staphylococcus aureus [14]
  Activity: Active
Staphylococcus aureus [15]
  Activity: Active
Staphylococcus aureus [16]
  Activity: Active
